Laboratory results from the NIST ThermoML archive (doi:10.1021/je020131a).

Assay: xn = mol fraction of the nth substance listed
Conditions: 101.3 kPa, Liquid, Falling or rolling sphere viscometry

C1CCCCC1 [cyclohexane] + CCOC(=O)OCC
x2 = 0
Conditions	viscosity [mPa·s]
293.15 K	0.976
298.15 K	0.894
303.15 K	0.813
313.15 K	0.697

C1CCCCC1 [cyclohexane] + COC(=O)OC
x2 = 0
Conditions	viscosity [mPa·s]
293.15 K	0.976
298.15 K	0.894
303.15 K	0.813
313.15 K	0.697

CCOC(=O)OCC [diethyl carbonate] + C1CCCCC1
Conditions	viscosity [mPa·s]
293.15 K, x1 = 0.0501	0.906
293.15 K, x1 = 0.0992	0.85
293.15 K, x1 = 0.1969	0.78
293.15 K, x1 = 0.2923	0.741
293.15 K, x1 = 0.4023	0.72
293.15 K, x1 = 0.502	0.712
293.15 K, x1 = 0.5984	0.718
293.15 K, x1 = 0.6977	0.728
293.15 K, x1 = 0.808	0.742
293.15 K, x1 = 0.9037	0.761
293.15 K, x1 = 0.9511	0.776
293.15 K, x1 = 1	0.795
298.15 K, x1 = 0.0531	0.832
298.15 K, x1 = 0.094	0.792
298.15 K, x1 = 0.1931	0.725
298.15 K, x1 = 0.2865	0.691
298.15 K, x1 = 0.3821	0.676
298.15 K, x1 = 0.4802	0.674
298.15 K, x1 = 0.6454	0.685
298.15 K, x1 = 0.6801	0.689
298.15 K, x1 = 0.7828	0.701
298.15 K, x1 = 0.8852	0.719
298.15 K, x1 = 0.9177	0.726
298.15 K, x1 = 1	0.749
303.15 K, x1 = 0.0497	0.76
303.15 K, x1 = 0.1018	0.717
303.15 K, x1 = 0.1958	0.665
303.15 K, x1 = 0.293	0.637
303.15 K, x1 = 0.3922	0.628
303.15 K, x1 = 0.4767	0.626
303.15 K, x1 = 0.5943	0.635
303.15 K, x1 = 0.6778	0.643
303.15 K, x1 = 0.7897	0.657
303.15 K, x1 = 0.8649	0.671
303.15 K, x1 = 0.94	0.684
303.15 K, x1 = 1	0.699
313.15 K, x1 = 0.0511	0.659
313.15 K, x1 = 0.0983	0.632
313.15 K, x1 = 0.2003	0.594
313.15 K, x1 = 0.3002	0.572
313.15 K, x1 = 0.3963	0.56
313.15 K, x1 = 0.4953	0.563
313.15 K, x1 = 0.5914	0.568
313.15 K, x1 = 0.7001	0.576
313.15 K, x1 = 0.8098	0.589
313.15 K, x1 = 0.9014	0.603
313.15 K, x1 = 0.9494	0.613
313.15 K, x1 = 1	0.623

CCOC(=O)OCC [diethyl carbonate] + CCCCCC
Conditions	viscosity [mPa·s]
293.15 K, x1 = 0.0576	0.318
293.15 K, x1 = 0.1106	0.326
293.15 K, x1 = 0.2219	0.353
293.15 K, x1 = 0.3358	0.388
293.15 K, x1 = 0.4303	0.422
293.15 K, x1 = 0.5384	0.471
293.15 K, x1 = 0.6357	0.524
293.15 K, x1 = 0.7334	0.588
293.15 K, x1 = 0.8246	0.652
293.15 K, x1 = 0.9171	0.721
293.15 K, x1 = 0.9589	0.757
293.15 K, x1 = 1	0.795
298.15 K, x1 = 0.0586	0.318
298.15 K, x1 = 0.1024	0.323
298.15 K, x1 = 0.2106	0.347
298.15 K, x1 = 0.305	0.37
298.15 K, x1 = 0.3592	0.389
298.15 K, x1 = 0.4259	0.412
298.15 K, x1 = 0.5719	0.475
298.15 K, x1 = 0.7051	0.546
298.15 K, x1 = 0.7965	0.605
298.15 K, x1 = 0.8894	0.67
298.15 K, x1 = 0.9095	0.688
298.15 K, x1 = 0.9794	0.737
298.15 K, x1 = 1	0.749
303.15 K, x1 = 0.0583	0.292
303.15 K, x1 = 0.0941	0.299
303.15 K, x1 = 0.1925	0.324
303.15 K, x1 = 0.2897	0.347
303.15 K, x1 = 0.3927	0.378
303.15 K, x1 = 0.5087	0.42
303.15 K, x1 = 0.6072	0.463
303.15 K, x1 = 0.7059	0.512
303.15 K, x1 = 0.8002	0.568
303.15 K, x1 = 0.8947	0.628
303.15 K, x1 = 0.9532	0.672
303.15 K, x1 = 1	0.699
313.15 K, x1 = 0.0502	0.264
313.15 K, x1 = 0.1001	0.278
313.15 K, x1 = 0.2001	0.295
313.15 K, x1 = 0.3008	0.318
313.15 K, x1 = 0.4021	0.344
313.15 K, x1 = 0.4972	0.371
313.15 K, x1 = 0.5992	0.41
313.15 K, x1 = 0.7005	0.454
313.15 K, x1 = 0.8096	0.509
313.15 K, x1 = 0.898	0.558
313.15 K, x1 = 0.9671	0.599
313.15 K, x1 = 1	0.623

CCOC(=O)OCC [diethyl carbonate] + CCCCCCC
Conditions	viscosity [mPa·s]
293.15 K, x1 = 0.049	0.41
293.15 K, x1 = 0.0983	0.413
293.15 K, x1 = 0.1973	0.427
293.15 K, x1 = 0.297	0.449
293.15 K, x1 = 0.3989	0.477
293.15 K, x1 = 0.4952	0.508
293.15 K, x1 = 0.601	0.549
293.15 K, x1 = 0.7014	0.594
293.15 K, x1 = 0.8012	0.647
293.15 K, x1 = 0.8985	0.707
293.15 K, x1 = 0.9482	0.744
293.15 K, x1 = 1	0.795
298.15 K, x1 = 0.0509	0.39
298.15 K, x1 = 0.0977	0.394
298.15 K, x1 = 0.1973	0.41
298.15 K, x1 = 0.3052	0.43
298.15 K, x1 = 0.3949	0.453
298.15 K, x1 = 0.5028	0.486
298.15 K, x1 = 0.5924	0.516
298.15 K, x1 = 0.7096	0.565
298.15 K, x1 = 0.8054	0.612
298.15 K, x1 = 0.9028	0.673
298.15 K, x1 = 0.9495	0.709
298.15 K, x1 = 1	0.749
303.15 K, x1 = 0.0506	0.386
303.15 K, x1 = 0.1001	0.389
303.15 K, x1 = 0.1991	0.399
303.15 K, x1 = 0.301	0.416
303.15 K, x1 = 0.4058	0.438
303.15 K, x1 = 0.5006	0.464
303.15 K, x1 = 0.6133	0.501
303.15 K, x1 = 0.7037	0.539
303.15 K, x1 = 0.8029	0.584
303.15 K, x1 = 0.8988	0.637
303.15 K, x1 = 0.946	0.667
303.15 K, x1 = 1	0.699
313.15 K, x1 = 0.0493	0.337
313.15 K, x1 = 0.0986	0.344
313.15 K, x1 = 0.1975	0.362
313.15 K, x1 = 0.2962	0.381
313.15 K, x1 = 0.3992	0.403
313.15 K, x1 = 0.4943	0.426
313.15 K, x1 = 0.5992	0.456
313.15 K, x1 = 0.699	0.49
313.15 K, x1 = 0.8009	0.528
313.15 K, x1 = 0.8984	0.573
313.15 K, x1 = 0.9508	0.599
313.15 K, x1 = 1	0.623
